Data published in ChEMBL document CHEMBL1151717, “In vivo active aldosterone synthase inhibitors with improved selectivity: lead optimization providing a series of pyridine substituted 3,4-dihydro-1H-quinolin-2-one derivatives” (J Med Chem, 2008).

How the values were obtained:
[1] = molecular target: T1, Cytochrome P450 11B2, mitochondrial (Homo sapiens, UniProt P19099); experiment: Inhibition of human CYP11B2 expressed in hamster V79 MZh cells at 500 nM; format: cell-based; conditions: V79MZh
T1 sequence (P19099 whole entry): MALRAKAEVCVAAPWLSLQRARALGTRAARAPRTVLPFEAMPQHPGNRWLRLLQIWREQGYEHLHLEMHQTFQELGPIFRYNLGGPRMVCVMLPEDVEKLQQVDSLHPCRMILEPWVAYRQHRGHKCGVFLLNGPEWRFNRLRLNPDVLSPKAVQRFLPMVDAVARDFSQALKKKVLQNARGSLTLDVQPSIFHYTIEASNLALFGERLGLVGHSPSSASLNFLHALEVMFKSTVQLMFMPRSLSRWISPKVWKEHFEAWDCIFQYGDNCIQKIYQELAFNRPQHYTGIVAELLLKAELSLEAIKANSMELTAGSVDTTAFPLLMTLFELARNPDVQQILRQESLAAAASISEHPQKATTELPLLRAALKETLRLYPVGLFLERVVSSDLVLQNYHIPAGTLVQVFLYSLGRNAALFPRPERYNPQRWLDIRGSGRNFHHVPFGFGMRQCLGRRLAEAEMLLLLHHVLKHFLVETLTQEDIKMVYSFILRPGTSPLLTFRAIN

CYP19 (aromatase) = molecular target: T2, CYP19 (aromatase) (Homo sapiens, UniProt P11511); experiment: Inhibition of human placental CYP19 at 500 nM; format: functional
T2 sequence (P11511 whole entry): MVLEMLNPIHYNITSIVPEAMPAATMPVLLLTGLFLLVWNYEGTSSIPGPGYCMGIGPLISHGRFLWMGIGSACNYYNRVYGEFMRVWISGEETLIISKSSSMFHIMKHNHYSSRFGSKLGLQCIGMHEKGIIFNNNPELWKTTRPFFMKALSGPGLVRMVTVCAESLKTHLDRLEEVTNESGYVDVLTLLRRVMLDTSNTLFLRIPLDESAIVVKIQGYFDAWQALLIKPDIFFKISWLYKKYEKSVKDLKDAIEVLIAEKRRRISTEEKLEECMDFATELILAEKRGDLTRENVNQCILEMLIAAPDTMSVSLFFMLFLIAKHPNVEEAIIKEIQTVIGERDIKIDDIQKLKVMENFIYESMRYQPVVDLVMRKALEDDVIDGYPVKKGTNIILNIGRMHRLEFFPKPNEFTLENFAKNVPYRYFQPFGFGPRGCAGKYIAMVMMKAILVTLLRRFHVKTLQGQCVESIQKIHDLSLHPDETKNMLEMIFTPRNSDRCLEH

CYP1A2 = molecular target: T3, CYP1A2 (Homo sapiens, UniProt P05177); experiment: Inhibition of human recombinant CYP1A2 expressed in baculovirus-infected insect microsomes at 2 uM; format: ADME, Microsome
T3 sequence (P05177 whole entry): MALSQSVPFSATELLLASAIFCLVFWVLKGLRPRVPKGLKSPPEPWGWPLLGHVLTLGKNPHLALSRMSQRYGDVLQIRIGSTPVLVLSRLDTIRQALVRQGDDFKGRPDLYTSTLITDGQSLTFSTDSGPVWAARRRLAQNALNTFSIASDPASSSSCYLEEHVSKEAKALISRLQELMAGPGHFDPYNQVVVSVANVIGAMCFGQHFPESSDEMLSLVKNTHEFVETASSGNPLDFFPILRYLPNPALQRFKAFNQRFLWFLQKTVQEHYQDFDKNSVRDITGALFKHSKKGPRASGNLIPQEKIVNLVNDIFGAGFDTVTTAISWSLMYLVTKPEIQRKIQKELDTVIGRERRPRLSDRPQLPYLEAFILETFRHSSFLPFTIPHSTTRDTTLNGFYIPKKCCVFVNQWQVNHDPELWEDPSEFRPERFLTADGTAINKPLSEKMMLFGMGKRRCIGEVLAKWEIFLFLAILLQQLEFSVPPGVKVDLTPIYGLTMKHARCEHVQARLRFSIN

Cytochrome P450 2C9 = Cytochrome P450 2C9 (Homo sapiens, UniProt P11712); experiment: Inhibition of human recombinant CYP2C9 expressed in baculovirus-infected insect microsomes; format: ADME, Microsome
Cytochrome P450 2C9, sequence (P11712 whole entry): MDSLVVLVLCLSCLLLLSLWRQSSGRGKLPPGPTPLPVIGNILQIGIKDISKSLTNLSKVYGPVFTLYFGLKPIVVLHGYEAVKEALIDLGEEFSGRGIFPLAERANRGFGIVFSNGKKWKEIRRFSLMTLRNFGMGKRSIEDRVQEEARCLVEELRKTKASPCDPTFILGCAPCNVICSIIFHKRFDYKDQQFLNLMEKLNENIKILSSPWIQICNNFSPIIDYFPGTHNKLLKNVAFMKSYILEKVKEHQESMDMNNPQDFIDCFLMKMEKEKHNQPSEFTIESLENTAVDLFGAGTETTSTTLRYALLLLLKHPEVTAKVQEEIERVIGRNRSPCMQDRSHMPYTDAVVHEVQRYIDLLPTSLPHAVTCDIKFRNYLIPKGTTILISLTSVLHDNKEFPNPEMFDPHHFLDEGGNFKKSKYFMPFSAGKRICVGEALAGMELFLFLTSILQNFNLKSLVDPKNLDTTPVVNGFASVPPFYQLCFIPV

Cytochrome P450 2C19 = Cytochrome P450 2C19 (Homo sapiens, UniProt P33261); experiment: Inhibition of human recombinant CYP2C19 expressed in baculovirus-infected insect microsomes; format: ADME, Microsome; conditions: read-out: IC50
Cytochrome P450 2C19, sequence (P33261 whole entry): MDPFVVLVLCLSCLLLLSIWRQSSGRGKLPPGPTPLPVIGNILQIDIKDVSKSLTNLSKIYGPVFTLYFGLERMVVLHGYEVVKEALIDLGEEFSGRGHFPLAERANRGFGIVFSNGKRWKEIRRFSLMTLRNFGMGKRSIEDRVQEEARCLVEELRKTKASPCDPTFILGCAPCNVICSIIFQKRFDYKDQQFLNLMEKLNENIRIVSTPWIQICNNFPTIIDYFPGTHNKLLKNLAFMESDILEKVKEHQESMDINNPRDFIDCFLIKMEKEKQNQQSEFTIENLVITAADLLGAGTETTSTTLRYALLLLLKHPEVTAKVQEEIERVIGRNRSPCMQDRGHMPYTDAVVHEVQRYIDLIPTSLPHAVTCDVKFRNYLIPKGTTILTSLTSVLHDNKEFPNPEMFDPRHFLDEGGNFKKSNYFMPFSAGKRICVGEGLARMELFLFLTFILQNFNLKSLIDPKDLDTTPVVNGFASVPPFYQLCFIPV

[2] = molecular target: T1, Cytochrome P450 11B2, mitochondrial
[3] = molecular target: T4, Cytochrome P450 11B1, mitochondrial (Homo sapiens, UniProt P15538)
T4 sequence (P15538 whole entry): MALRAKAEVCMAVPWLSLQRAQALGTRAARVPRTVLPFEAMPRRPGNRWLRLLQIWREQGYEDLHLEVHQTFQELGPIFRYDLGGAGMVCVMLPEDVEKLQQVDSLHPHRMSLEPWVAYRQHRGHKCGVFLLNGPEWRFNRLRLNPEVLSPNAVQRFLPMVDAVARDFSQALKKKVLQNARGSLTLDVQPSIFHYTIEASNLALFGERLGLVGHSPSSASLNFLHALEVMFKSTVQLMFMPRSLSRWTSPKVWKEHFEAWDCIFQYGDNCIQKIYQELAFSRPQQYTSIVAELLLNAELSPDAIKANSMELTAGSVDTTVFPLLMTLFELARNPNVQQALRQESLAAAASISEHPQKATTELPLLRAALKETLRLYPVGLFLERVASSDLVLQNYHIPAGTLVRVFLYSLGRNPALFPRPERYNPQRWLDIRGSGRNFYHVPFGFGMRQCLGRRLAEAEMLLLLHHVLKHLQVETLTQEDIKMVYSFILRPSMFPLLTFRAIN

Cytochrome P450 1A2 = molecular target: T5, Cytochrome P450 1A2 (Homo sapiens, UniProt P05177)
T5 sequence (P05177 whole entry): T3 sequence (P05177 whole entry)

CYP17 = molecular target: T6, CYP17 (Homo sapiens, UniProt P05093); experiment: in vitro; conditions: human CYP17 expressed in Escherichia coli
T6 sequence (P05093 whole entry): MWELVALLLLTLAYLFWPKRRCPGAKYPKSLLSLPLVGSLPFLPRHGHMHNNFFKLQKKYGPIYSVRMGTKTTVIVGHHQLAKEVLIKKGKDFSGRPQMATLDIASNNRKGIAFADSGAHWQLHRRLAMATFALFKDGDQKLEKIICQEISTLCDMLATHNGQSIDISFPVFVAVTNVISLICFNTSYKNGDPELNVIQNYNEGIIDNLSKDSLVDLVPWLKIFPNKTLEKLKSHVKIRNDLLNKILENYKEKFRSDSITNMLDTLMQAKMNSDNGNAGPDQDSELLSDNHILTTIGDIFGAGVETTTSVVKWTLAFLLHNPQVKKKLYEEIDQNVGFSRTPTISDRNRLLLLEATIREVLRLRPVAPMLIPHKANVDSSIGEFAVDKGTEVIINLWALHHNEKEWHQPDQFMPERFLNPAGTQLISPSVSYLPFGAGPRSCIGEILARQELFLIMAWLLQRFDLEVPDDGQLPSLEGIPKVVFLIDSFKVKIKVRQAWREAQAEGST
Description: Inhibition of human CYP17 expressed in Escherichia coli at 2.5 uM

Homo sapiens = organism: Homo sapiens; experiment: Selectivity ratio, IC50 for human CYP11B1 to IC50 for human CYP11B2

| inhibition at 0.5 µM [1] [%] | inhibition at 0.5 µM (CYP19 (aromatase)) [%] | inhibition at 2 µM (CYP1A2) [%] | IC50 (Cytochrome P450 2C9) [µM] | IC50 (Cytochrome P450 2C19) [µM] | IC50 [2] [nM] | IC50 [3] [nM] | IC50 (Cytochrome P450 1A2) [nM] | inhibition at 2.5 µM (CYP17) [%] | Ratio IC50 (Homo sapiens) | Structure (SMILES) |
| --- | --- | --- | --- | --- | --- | --- | --- | --- | --- | --- |
| 97 | 31 | 60 | 28.3 | 41.5 | 7.8 | 3960 | 1550 | 20 | 496 | O=C1CCc2cc(-c3cccnc3)ccc2C1 |
| 94 | < 5 | < 5 | 2.9 | 9.2 | 0.2 | 33 | > 150000 | 22 | 187 | O=C1CCc2cc(-c3cncc4ccccc34)ccc2N1 |
| 94 | 58 | 57 | 12.9 | 45.4 | 1.8 | 191 | 1560 | 21 | 106 | COc1cncc(-c2ccc3c(c2)CCC(=O)C3)c1 |
